# System: KMS.12.BM cell line (human myeloma)
# Experiment: KMS.12.BM cell viability assay
# Type: cell-based
# Conditions: 3 days, Cell Titer-GLO ATP quantitation; concentration required for 50% cell death
# Description: KMS.12.BM cell line (human myeloma) was purchased from JCRB (Osaka, Japan) and maintained in RPMI with 10% FBS culture medium. To measure the cytotoxic activity of the compounds through ATP quantitation, the KMS.12.BM cells are plated in the RPMI culture medium at 5000 cells/well/per 100 μL into a 96-well polystyrene clear black tissue culture plate (Greiner-bio-one through VWR, NJ), in the presence or absence of a concentration range of test compounds. After 3 days, […] Cell Titer-GLO Luminescent (Promega, Madison, Wis.) cell culture agent is added to each well for 10 minutes at room temperature to stabilize the luminescent signal. This determines the number of viable cells in culture based on quantitation of the ATP present, which signals the presence of metabolically active cells. Luminescence is measured with the Top Count 384 (Packard Bioscience through Perkin Elmer, Boston, Mass.). Compound inhibition is determined relative to cells cultured with no drug and the IC50 is reported as the compound concentration required for 50% cell death.
structure (smiles),measurement,value
"Cn1cc(-c2cc(S(C)(=O)=O)cc3c2NC2(CCC2)C(=O)N3)c2cc[nH]c2c1=O [Example 62, 8′-(6-methyl-7-oxo-6,7-dihydro-1H-pyrrolo[2,3-c]pyridin-4-yl)-6′-(methylsulfonyl)-1,4′-dihydro-3H-spiro[cyclobutane-1,2′-quinoxalin]-3′-one]",IC50,≤ 1000 nM

# Reference: US11702416B2, “1H-pyrrolo[2,3-c]pyridin-7(6H)-ones and pyrazolo[3,4-c]pyridin-7(6H)-ones as inhibitors of BET proteins” (Incyte Corporation, priority 2014, dated 2023)
